According to patent US20250009843A1, “COMPOSITIONS AND METHODS FOR TREATMENTS BY MODULATION OF EXCITABLE TISSUES ACTIVITIES, AND FOR ANTIMICROBIAL APPLICATIONS” (priority 2021, published 2025):

What was measured:
[1] = system: DRG: dorsal root ganglion; hChon: human normal chondrocytes; OA: human OA chondrocytes; format: cell-based; conditions: 24-72 hours; 2.5 mg/ml of HA or equivalent by gram:gram ratio; three cell types
Protocol: (§1) FIG. 4: Data of the effect of various peptide drug embodiments and peptide alone on metabolic activity and viability of cell types (DRG: dorsal root ganglion; hChon: human normal chondrocytes; OA: human OA chondrocytes). n=3 in all cases; all tested at 2.5 mg/ml of HA or equivalent using gram:gram ratio (See Table). Details on test materials given in below table. […] Panel B: Viability assessed using Live/Dead assay. No significant difference between peptide drug at 24-72 hours in DRGs compared to control.

DRGs = format: cell-based; conditions: 24-72 hours, 2.5 mg/ml of HA or equivalent
Protocol: as §1

[2] = system: dorsal root ganglia (DRG) (sensory) neurons; experiment: Single cell patch clamp on DRG neurons (sodium current, action potentials); format: cell-based, rat
Protocol: Dorsal Root Ganglia (DRG) sensory neurons were extracted from […] (Cdram). The DRG explants were dissected from the cervical and thoracic regions of the spine of neonatal rat pups (P5) and placed in cold HBSS (lx) without Ca^2+/Mg^2+ (Invitrogen, USA). After cleaning the remnants of peripheral nerve processes, DRGS were seeded in 12-well glass-coated laminin plates. Cells were feed every 2/3 days and they were processed for single cell patch clamping.
Whole cell patch clamp configuration was used to record from 100 day iPSC derived neurons and DRG neurons. […]
Recordings were made using the EPC10 patch clamp amplifier from HEKA. Voltage-dependent Na^+ and K^+ currents were recorded in voltage clamp mode from a holding potential of −70 mV; voltage step depolarization was applied up to +20 mV in 10 mV increments and recorded for 200 ms. All data were recorded unfiltered for voltage and current clamp recording at 50.0 kHz and 20.0 kHz, respectively.
Intrinsic firing properties of neurons were recorded in current clamp mode, with step current injections from a holding value of −5 pA up to +45 pA, for 500 ms, in 10 pA increments. Spontaneous action potential (AP) was recorded in current clamp mode at zero current injection (resting membrane potential) just after whole cell configuration was achieved. […]

DRG cells = experiment: Microelectrode Array (MEA) electrical activity of capsaicin-stimulated DRG cells; format: cell-based; conditions: dose range 10-1000 μg/ml; FIG. 3B
[3] = system: TRPV1 pathway in cortical neurons; experiment: Calcium imaging of cortical neurons (capsaicin, glutamic acid); format: cell-based; conditions: 1 μg/ml
Protocol: TRPV1 channels on neurons open in response to stimuli like capsaicin. Once open cations like calcium flow into the cell, which triggers action potentials and the sensation of pain. Cells tested were cortical neurons, n=3 unless noted. Panel A: Calcium imaging is used to measure calcium flow across neural cell membranes. Cells treated in sequence with no chemical (control), PLA (1.9 kDa at 1 μg/ml), capsaicin, and then glutamic acid. […] This is an effect seen by TRPV1 agonists that are used as analgesics such as capsaicin.

cortical neurons = experiment: Patch clamp of cortical neurons (sodium current); format: cell-based; conditions: 1 μg/ml; FIG. 10C
E. coli [4] = experiment: Optical density assay of antimicrobial effect; format: cell-based; conditions: for E. coli growth (optical density as percentage of control): 16 hours incubation, polymers and conjugates 1-5 mg/ml, PLA 0.01-0.5 mg/ml
Protocol: As an example of this Hydrobloc prototypes and PLA 1.9 kDa at various concentrations were incubated with E. coli in wells. If microbial growth occurs, then the optical density increases reflecting the colloidal nature of bacterial cells. As a control a blank well is prepared containing growth medium and saline. The results after 16 hours incubation are presented in the figure as a percentage of control. Panel A: Optical density results for various Hydrobloc prototypes and related test materials.
(§2) Hyaluronic acid (2.2-2.4 MDa) or PEG (10 kDa) was used as base polymer conjugated to Poly-L-Arginine (1.9 kDa or 15-70 kDa) as the AMP in varying mass/mass ratios of conjugation, and at different concentrations. Controls included empirical admixtures of the polymer/AMP as well as just the polymer or AMP.
Principle: Antimicrobial test materials added to wells at various concentrations, wells seeded with microbe. Microbial growth increase the optical density (OD)—assay monitors ability of microbe to grow in presence of test material. […] The microbe used was E. Coli. The results are shown in FIG. 13 with the values presented as a percentage of control (blank). […] The OD is ˜≤0.0 at all concentrations (0.01-0.5 mg/ml). Overall statistical significance is seen with 0.25 mg/ml and 5 mg/ml.

E. coli [5] = experiment: Kirby-Bauer disk diffusion susceptibility test; format: cell-based; conditions: BP12P03 1-10 mg/ml; PLA 0.5 mg/ml
Protocol: as §2
(§3) Principle: Disks were saturated with antimicrobial test material and place on agar seeded with microbe. test material diffuses out and after incubation diameter of the clear zone is proportional to potency against the microbe. BP12P03 at 1 mg/ml −10 mg/ml; PLA (1.9 kDA) at 0.5 mg/ml were tested. Microbes used were S. aureus, S. epidermis and E. coli.

S. aureus = experiment: Kirby-Bauer disk diffusion susceptibility test; format: cell-based; conditions: BP12P03 1-10 mg/ml; PLA 0.5 mg/ml
Protocol: as §2, §3

S. epidermis = experiment: Kirby-Bauer disk diffusion susceptibility test; format: cell-based; conditions: BP12P03 1-10 mg/ml; PLA 0.5 mg/ml
Protocol: as §2, §3

[6] = system: dorsal root ganglia (DRG) (sensory) neurons; conditions: literature value; cited from earlier work

With “Poly-L-arginine hydrochloride [Hydrobloc C01]” the “Metabolic activity (Alamar Blue)” value [1] was “negatively affect metabolic activity” and the “Viability (Live/Dead)” value (DRGs) was “negatively affect viability”.
In the case of `NC1=N[C@H](O)[C@H]2[C@H]3O[C@]4(O)O[C@@H]([C@@H](O)[C@@]2(N1)[C@@H]4O)[C@]3(O)CO` [TTX, tetrodotoxin], the “Percentage reduction of sodium current (control)” value [2] is reported as “approximately 99%”.
With Poly-L-Arginine [PLA 1.9 kDa] the “Concentration at which most suppression of spike count is seen” value (DRG cells) was 10 µg/mL, the “Viability (Live/Dead)” value (DRGs) was “best viability profile” and the “Capsaicin (TRPV1 pathway) response” value ([3]; cortical neurons, n=3) was “blocks the capsaicin (TRPV1 pathway response)”. The Glutamate response ([3]; glutamic acid after capsaicin) was “glutamate response is unaffected”, the “Block of sodium current” value (cortical neurons) was “time dependent effect—getting stronger with time” and the “E. coli growth (optical density as percentage of control)” value (E. coli [4]) was “potent giving quantifiable antimicrobial effects at all concentrations tested”. The “E. coli growth (optical density as percentage of control)” value (E. coli [4]; listed as PLA) was “very potent”, the “Optical density (OD)” value (E. coli [4]; all concentrations (0.01-0.5 mg/ml)) was at most 0.0 and the “Activity in disk diffusion” value (E. coli [5]) was “activity against all tested species”. The “Activity in disk diffusion” value (S. aureus) was “activity against all tested species” and the “Activity in disk diffusion” value (S. epidermis) was “activity against all tested species”.
In the case of `CCN(CC)CC(=O)Nc1c(C)cccc1C` [Lidocaine], the “Reduction of sodium current reported in the literature” value [6] is given as 38%.
